Measured values taken from EP0672419A1, “BLOOD PRESSURE REGULATOR” (Asahi Kasei Kogyo Kabushiki Kaisha, priority 1991, dated 1995).

Test system: Adult mongrel dog
Test: Induced hypotension in halothane-anesthetized dog, mean arterial pressure kept at 50 mmHg for 60 min (Example 5)
Format: in vivo
Procedure: Adult mongrel dog, mean body weight 12.7 ± 3.1 kg, was anesthesized with pentobarbital 25 mg/kg, intratarcheally cannulated and maintained anesthetic condition by 0.87% halothane-oxygen (1 MAC, minimum anesthetic concentration). Respiration was controlled, by using respirator (Harvard Corp., Model 613E ) at Paco₂ 35±5 mmHg.
Catheters were introduced to right femoral vein and artery for monitering arterial blood pressure, arterial blood gas analysis and infusion, and left cardiac catheter was introduced to left femoral […] to monitor left ventricular pressure. The changes in left ventricular pressure were differentiated continuously using a pressure processor (Nihon Koden Co., EQ-601G) to measure a maximum left ventricular systolic ratio (LV dp/dt max). The active ingredient of the present invention was administered to left femoral vein. Pulmonary arterial catheter (7F, Swan-Ganz® catheter) was introduced through right external jugular vein to monitor pulmonary artery pressure (PAP), paulmonary arterial wedge pressure (pulmonary capillary wedge pressure, PCWP) and cardiac output (CO). Pressure was monitored by using disporsable pressure monitoring kit (Gould Corp.), and electrocardiogram, arteriala pressure, left ventricle pressure (LVP) and maximum left ventricular systolic ratio (LV dp/dt max) were monitored by polygraph (Nihon Koden Co.) . Cardiac output (CO) was measured by thermal dilution method using cardiac output monitor (Nihon Koden Co Model MTC6210). Blood gas analysis was made by using automatic blood gas analyser (Radiometer Corp. ABL3). Mean artery pressure (MAP), cardiac index(CI) stroke volume index (SI), systemic vascular resistance (SVR), pulmonary vascular resistance (PVR), left ventricle stroke work index (LVSWI) and coronary perfusion pressure (CPP) were calculated by standard calculation equations, respectively.
To maintain low blood pressure, the active ingredient was intraveneously administered for 60 minutes with maintaining maximum dose at 40 µg/kg and adjusting to maintain mean arteraial pressure at 50 mmHg. Physiological saline was used for maintenance infusion and administered in combination with the active ingredient at 7 ml/kg/hr. At blood sampling two fold volume of hydroxyethylstarch (6-HES) was supplementary administered. Body temperature was maintained at 37 ± 1°C by covering with blanket.
A value at time are than 60 minutes passed after completing the start of the experiment and stabilizing a depth of anesthesia and blood flow, is set as control (S₁). Monitorings were performed at 5 min., 30 min. and 60 min. under reduced blood pressure in induced hypotension, and at 10 min., 30 min. and 60 min. after terminating the reduced blood pressure in induced hypotension (after stopping administration), for totally seven points of time.

[1] = after administration 5min., i.v., MAP kept at 50 mmHg
[2] = after administration 30min., i.v., MAP kept at 50 mmHg
[3] = after administration 60min., i.v., MAP kept at 50 mmHg
[4] = after terminating administration 10min.
[5] = after terminating administration 30min.
[6] = after terminating administration 60min.

desalanyl-deamino-c-CGRP
CI: Cardiac index [1]: 4.65 1/min/m²
CO: Cardiac output [1]: 3.67 min⁻¹
CPP: Coronary perfusion pressure [1]: 45 mmHg
CVP: Central venous pressure [1]: 4 mmHg
DAP: Diastolic artery pressure [1]: 50 mmHg
DPAP: Diastolic pulmonary artery pressure [1]: 7 mmHg
EtCO₂: Expiration terminal CO₂ pressure [1]: 37 mmHg
HR: Heart rate [1]: 143 beat/min
LV dp/dt max: maximum left ventricular systolic ratio [1]: 3000 mmHg/sec
LVEP: Left ventricle end pressure [1]: 0 mmHg
LVP: Left ventricle pressure [1]: 102 mmHg
LVSWI: Left ventricle stroke work index [1]: 26.5 g.m/beat/m²
MAP: Mean artery pressure [1]: 65 mmHg
MPAP: Mean pulmonary artery pressure [1]: 16 mmHg
PCWP: Pulmonary capillary wedge pressure [1]: 5 mmHg
PVR: Pulmonary vascular resistance [1]: 255 dynes · sec/cm⁵
RPP: Rate pressure products [1]: 13200 mmHg.beat/min
RVSWI: Right ventricle stroke work index [1]: 5.30 g.m/beat/m²
SAP: Systolic artery pressure [1]: 93 mmHg
SI: Stroke index [1]: 32.5 ml/HR/m²
SPAP: Systolic pulmonary artery pressure [1]: 29 mmHg
SV: Stroke volumes [1]: 24 mL/beat
SVR: Systemic vascular resistance [1]: 1410 dynes · sec/cm⁵
CI: Cardiac index [2]: 4.24 1/min/m²
CO: Cardiac output [2]: 3.40 min⁻¹
CPP: Coronary perfusion pressure [2]: 29 mmHg
CVP: Central venous pressure [2]: 4 mmHg
DAP: Diastolic artery pressure [2]: 34 mmHg
DPAP: Diastolic pulmonary artery pressure [2]: 5 mmHg
EtCO₂: Expiration terminal CO₂ pressure [2]: 35 mmHg
HR: Heart rate [2]: 132 beat/min
LV dp/dt max: maximum left ventricular systolic ratio [2]: 2600 mmHg/sec
LVEP: Left ventricle end pressure [2]: 0 mmHg
LVP: Left ventricle pressure [2]: 86 mmHg
LVSWI: Left ventricle stroke work index [2]: 19.7 g.m/beat/m²
MAP: Mean artery pressure [2]: 50 mmHg
MPAP: Mean pulmonary artery pressure [2]: 12 mmHg
PCWP: Pulmonary capillary wedge pressure [2]: 5 mmHg
PVR: Pulmonary vascular resistance [2]: 177 dynes · sec/cm⁵
RPP: Rate pressure products [2]: 7650 mmHg.beat/min
RVSWI: Right ventricle stroke work index [2]: 3.50 g.m/beat/m²
SAP: Systolic artery pressure [2]: 58 mmHg
SI: Stroke index [2]: 32.2 ml/HR/m²
SPAP: Systolic pulmonary artery pressure [2]: 24 mmHg
SV: Stroke volumes [2]: 23.8 mL/beat
SVR: Systemic vascular resistance [2]: 1160 dynes · sec/cm⁵
CI: Cardiac index [3]: 4.95 1/min/m²
CO: Cardiac output [3]: 3.75 min⁻¹
CPP: Coronary perfusion pressure [3]: 37 mmHg
CVP: Central venous pressure [3]: 4 mmHg
DAP: Diastolic artery pressure [3]: 43 mmHg
DPAP: Diastolic pulmonary artery pressure [3]: 7 mmHg
EtCO₂: Expiration terminal CO₂ pressure [3]: 34 mmHg
HR: Heart rate [3]: 138 beat/min
LV dp/dt max: maximum left ventricular systolic ratio [3]: 2600 mmHg/sec
LVEP: Left ventricle end pressure [3]: 0 mmHg
LVP: Left ventricle pressure [3]: 95 mmHg
LVSWI: Left ventricle stroke work index [3]: 23.4 g.m/beat/m²
MAP: Mean artery pressure [3]: 50 mmHg
MPAP: Mean pulmonary artery pressure [3]: 15 mmHg
PCWP: Pulmonary capillary wedge pressure [3]: 6 mmHg
PVR: Pulmonary vascular resistance [3]: 196 dynes · sec/cm⁵
RPP: Rate pressure products [3]: 8000 mmHg.beat/min
RVSWI: Right ventricle stroke work index [3]: 5.37 g.m/beat/m²
SAP: Systolic artery pressure [3]: 58 mmHg
SI: Stroke index [3]: 35.9 ml/HR/m²
SPAP: Systolic pulmonary artery pressure [3]: 27 mmHg
SV: Stroke volumes [3]: 26.5 mL/beat
SVR: Systemic vascular resistance [3]: 1090 dynes · sec/cm⁵
CI: Cardiac index [4]: 4.33 1/min/m²
CO: Cardiac output [4]: 3.33 min⁻¹
CPP: Coronary perfusion pressure [4]: 41 mmHg
CVP: Central venous pressure [4]: 4 mmHg
DAP: Diastolic artery pressure [4]: 49 mmHg
DPAP: Diastolic pulmonary artery pressure [4]: 7 mmHg
EtCO₂: Expiration terminal CO₂ pressure [4]: 32 mmHg
HR: Heart rate [4]: 136 beat/min
LV dp/dt max: maximum left ventricular systolic ratio [4]: 3000 mmHg/sec
LVEP: Left ventricle end pressure [4]: 0 mmHg
LVP: Left ventricle pressure [4]: 110 mmHg
LVSWI: Left ventricle stroke work index [4]: 21.7 g.m/beat/m²
MAP: Mean artery pressure [4]: 58 mmHg
MPAP: Mean pulmonary artery pressure [4]: 15 mmHg
PCWP: Pulmonary capillary wedge pressure [4]: 8 mmHg
PVR: Pulmonary vascular resistance [4]: 174 dynes · sec/cm⁵
RPP: Rate pressure products [4]: 9240 mmHg.beat/min
RVSWI: Right ventricle stroke work index [4]: 4.77 g.m/beat/m²
SAP: Systolic artery pressure [4]: 68 mmHg
SI: Stroke index [4]: 31.9 ml/HR/m²
SPAP: Systolic pulmonary artery pressure [4]: 26 mmHg
SV: Stroke volumes [4]: 23.6 mL/beat
SVR: Systemic vascular resistance [4]: 1340 dynes · sec/cm⁵
CI: Cardiac index [5]: 4.07 1/min/m²
CO: Cardiac output [5]: 3.14 min⁻¹
CPP: Coronary perfusion pressure [5]: 46 mmHg
CVP: Central venous pressure [5]: 4 mmHg
DAP: Diastolic artery pressure [5]: 53 mmHg
DPAP: Diastolic pulmonary artery pressure [5]: 8 mmHg
EtCO₂: Expiration terminal CO₂ pressure [5]: 30 mmHg
HR: Heart rate [5]: 138 beat/min
LV dp/dt max: maximum left ventricular systolic ratio [5]: 3000 mmHg/sec
LVEP: Left ventricle end pressure [5]: 0 mmHg
LVP: Left ventricle pressure [5]: 110 mmHg
LVSWI: Left ventricle stroke work index [5]: 23.7 g.m/beat/m²
MAP: Mean artery pressure [5]: 66 mmHg
MPAP: Mean pulmonary artery pressure [5]: 15 mmHg
PCWP: Pulmonary capillary wedge pressure [5]: 7 mmHg
PVR: Pulmonary vascular resistance [5]: 211 dynes · sec/cm⁵
RPP: Rate pressure products [5]: 10900 mmHg.beat/min
RVSWI: Right ventricle stroke work index [5]: 4.42 g.m/beat/m²
SAP: Systolic artery pressure [5]: 79 mmHg
SI: Stroke index [5]: 29.5 ml/HR/m²
SPAP: Systolic pulmonary artery pressure [5]: 25 mmHg
SV: Stroke volumes [5]: 21.8 mL/beat
SVR: Systemic vascular resistance [5]: 1640 dynes · sec/cm⁵
CI: Cardiac index [6]: 4.14 1/min/m²
CO: Cardiac output [6]: 3.07 min⁻¹
CPP: Coronary perfusion pressure [6]: 54 mmHg
CVP: Central venous pressure [6]: 6 mmHg
DAP: Diastolic artery pressure [6]: 61 mmHg
DPAP: Diastolic pulmonary artery pressure [6]: 8 mmHg
EtCO₂: Expiration terminal CO₂ pressure [6]: 30 mmHg
HR: Heart rate [6]: 134 beat/min
LV dp/dt max: maximum left ventricular systolic ratio [6]: 3000 mmHg/sec
LVEP: Left ventricle end pressure [6]: 0 mmHg
LVP: Left ventricle pressure [6]: 111 mmHg
LVSWI: Left ventricle stroke work index [6]: 31.1 g.m/beat/m²
MAP: Mean artery pressure [6]: 95 mmHg
MPAP: Mean pulmonary artery pressure [6]: 16 mmHg
PCWP: Pulmonary capillary wedge pressure [6]: 7 mmHg
PVR: Pulmonary vascular resistance [6]: 234 dynes · sec/cm⁵
RPP: Rate pressure products [6]: 13600 mmHg.beat/min
RVSWI: Right ventricle stroke work index [6]: 4.21 g.m/beat/m²
SAP: Systolic artery pressure [6]: 102 mmHg
SI: Stroke index [6]: 30.9 ml/HR/m²
SPAP: Systolic pulmonary artery pressure [6]: 26 mmHg
SV: Stroke volumes [6]: 22.9 mL/beat
SVR: Systemic vascular resistance [6]: 1950 dynes · sec/cm⁵
